Twelve molecules from patent US20240245051A1, “DISINFECTING, ANTIMICROBIAL AND PRESERVATIVE COMPOSITION” (BJBIOCHEM CO., LTD., priority 2021, published 2024) can be followed below.

Experiment in all cases: Antimicrobial test, broth dilution method (MIC)
What all share (type): cell-based
What all share (settings): single compounds of Comparative Examples
Background: Dilution methods test growth across graded concentrations, often in twofold steps.

One assay concerns E. coli. How it is done: (§1) The antimicrobial activity of the test solution was measured using a broth dilution method. The concentration of the test solution that was treated was diluted from the highest concentration of 5% to the lowest concentration of 0.0001%. The test solution was cultured in the presence of the strain and then the turbidity of the tube was determined. […] After the primary test described as above, the concentration of the test solution that was treated was further subdivided and a secondary test was conducted to obtain an accurate minimum inhibitory concentration (MIC).
(§2) Test strains E. coli, S. aureus, and P. aeruginosa were inoculated into tryptic soy broth and incubated at 35±2° C. for 16 to 24 hours. C. albicans was inoculated into Sabouraud dextrose broth and cultured at 35° C. for 24 hours. A. niger was seeded on potato dextrose agar and cultured at (25±1°) C for 7 days, sterile physiological saline was dispensed into a solid medium on which the bacteria grew, and spores were removed using a spreader and then diluted in sterile physiological saline.
(§3) A liquid medium was put into the tube and the concentration of the test solution that was treated was diluted from the highest concentration of 5% to the lowest concentration of 0.0001%. The liquid media used for E. coli, S. aureus, and P. aeruginosa (bacteria) were tryptic soy broth, and the liquid media used for C. albicans, and A. niger (fungi) were Sabouraud dextrose broth.
(§4) E. coli, S. aureus, and P. aeruginosa of the strains were inoculated at a concentration of 1×10^5 CFU/mL in the test tube. The tubes treated with the test solution were incubated at 35±2° C. for 16 to 24 hours. C. albicans and A. niger were inoculated at a concentration of 1×10^4 CFU/mL in the test tube. After treatment with the test solution was completed, C. albicans was cultured at 35° C. for 24 to 48 hours and A. niger was cultured at 25° C. for 46 to 50 hours. A medium tube, to which the bacterial solution was not added, was used as a negative control, and a tube containing the medium inoculated with only the bacterial solution without the test solution was used as a growth control. In addition, in order to determine the antimicrobial activity of dipropylene glycol itself used as a solvent, the MIC of the test bacteria for the solvent was measured under the same conditions as in the sample.

A further assay deals with A. niger. How it is done: as §1, §2, §3, §4
The next assay has as its system C. albicans. On the procedure:
as §1, §2, §3, §4

The subject of another assay is P. aeruginosa. How it is done:
as §1, §2, §3, §4

The next assay concerns S. aureus. How it is done:
as §1, §2, §3, §4

As for `OCCCc1ccccc1` [Comparative Example 12, 3-phenyl-1-propanol], the “minimum inhibitory concentration (MIC), E. coli” value with E. coli is reported as 0.4%. Moreover, the “minimum inhibitory concentration (MIC), A. niger” value with A. niger was 0.03%. Further, the “minimum inhibitory concentration (MIC), C. albicans” value in the assay on C. albicans was found to be 0.03%. Besides, the “minimum inhibitory concentration (MIC), P. Aeruginosa” value in the assay on P. aeruginosa was 0.2%. Moreover, the “minimum inhibitory concentration (MIC), S. Aureus” value in the assay with S. aureus is reported as 0.4%.
For the molecule `CC(=O)c1ccc(O)cc1` [Comparative Example 13, 4-hydroxy acetophenone], the “minimum inhibitory concentration (MIC), E. coli” value in the assay on E. coli stood at 0.15%. For the same molecule, the “minimum inhibitory concentration (MIC), A. niger” value in the assay with A. niger is given as 0.5%. In the assay with C. albicans, the “minimum inhibitory concentration (MIC), C. albicans” value is recorded as 0.1%. Also, the “minimum inhibitory concentration (MIC), P. Aeruginosa” value in the assay with P. aeruginosa worked out at 0.1%. Further, the “minimum inhibitory concentration (MIC), S. Aureus” value in the assay on S. aureus is 0.2%.
Consider `O=C([O-])c1ccccc1.[Na+]` [Comparative Example 14, Sodium benzoate], for which the “minimum inhibitory concentration (MIC), E. coli” value in the assay on E. coli is 0.016%. Moreover, the “minimum inhibitory concentration (MIC), A. niger” value in the assay with A. niger is on record as 0.1%. In addition, the “minimum inhibitory concentration (MIC), C. albicans” value in the assay with C. albicans is on record as 0.12%. In the assay with P. aeruginosa, the “minimum inhibitory concentration (MIC), P. Aeruginosa” value worked out at 0.016%. In addition, the “minimum inhibitory concentration (MIC), S. Aureus” value in the assay with S. aureus turned out to be 0.002%.
Take `OCCOc1ccccc1` [Comparative Example 15, Phenoxy EtOH]: the “minimum inhibitory concentration (MIC), E. coli” value in the assay on E. coli was 0.06%. In addition, the “minimum inhibitory concentration (MIC), A. niger” value with A. niger worked out at 0.12%. For the same molecule, in the assay with C. albicans, the “minimum inhibitory concentration (MIC), C. albicans” value worked out at 0.12%. In addition, the “minimum inhibitory concentration (MIC), P. Aeruginosa” value in the assay on P. aeruginosa worked out at 0.09%. In the assay with S. aureus, the “minimum inhibitory concentration (MIC), S. Aureus” value worked out at 0.06%.
For `CCCCCCCC(=O)NO` [Comparative Example 17, Caprylhydroxamic acid], in the assay with E. coli, the “minimum inhibitory concentration (MIC), E. coli” value is on record as 0.06%. Moreover, the “minimum inhibitory concentration (MIC), A. niger” value with A. niger is given as 0.02%. Besides, the “minimum inhibitory concentration (MIC), C. albicans” value in the assay with C. albicans worked out at 0.03%. The “minimum inhibitory concentration (MIC), P. Aeruginosa” value in the assay with P. aeruginosa is listed as 0.12%. Also, the “minimum inhibitory concentration (MIC), S. Aureus” value in the assay on S. aureus is recorded as 0.06%.
Regarding `Cc1cc(CC(C)CC(C)(C)C)n(O)c(=O)c1` (stereo not drawn) [Comparative Example 18, Piroctone olamine], the “minimum inhibitory concentration (MIC), E. coli” value in the assay on E. coli came to 0.05%. Also, in the assay on A. niger, the “minimum inhibitory concentration (MIC), A. niger” value was found to be 0.3%. The “minimum inhibitory concentration (MIC), C. albicans” value with C. albicans amounted to 0.2%. Also, the “minimum inhibitory concentration (MIC), P. Aeruginosa” value in the assay with P. aeruginosa was determined as 0.2%. Besides, the “minimum inhibitory concentration (MIC), S. Aureus” value with S. aureus is 0.05%.
On to `CCCCCCCCCCCC(=O)NC(CCCN=C(N)N)C(=O)OCC` (stereo not drawn) [Comparative Example 19, Lauroyl arginine ethyl ester], for which, in the assay with E. coli, the “minimum inhibitory concentration (MIC), E. coli” value worked out at 0.003%. In addition, the “minimum inhibitory concentration (MIC), A. niger” value in the assay on A. niger is 0.003%. Further, the “minimum inhibitory concentration (MIC), C. albicans” value with C. albicans is 0.001%. Moreover, the “minimum inhibitory concentration (MIC), P. Aeruginosa” value with P. aeruginosa is recorded as 0.003%. In addition, in the assay with S. aureus, the “minimum inhibitory concentration (MIC), S. Aureus” value is given as 0.003%.
Consider `CC(=O)CCC(=O)O` [Comparative Example 20, Levulinic acid], for which the “minimum inhibitory concentration (MIC), E. coli” value in the assay on E. coli turned out to be 0.02%. Moreover, the “minimum inhibitory concentration (MIC), A. niger” value in the assay with A. niger came out at 0.15%. Besides, the “minimum inhibitory concentration (MIC), C. albicans” value in the assay on C. albicans was 0.1%. In addition, the “minimum inhibitory concentration (MIC), P. Aeruginosa” value in the assay on P. aeruginosa stood at 0.1%. In addition, in the assay with S. aureus, the “minimum inhibitory concentration (MIC), S. Aureus” value was 0.02%.
As for `COc1ccc(C(=O)O)cc1` [Comparative Example 22, Sodium anisate], the “minimum inhibitory concentration (MIC), E. coli” value in the assay on E. coli was 0.05%. Moreover, the “minimum inhibitory concentration (MIC), A. niger” value in the assay with A. niger was 0.1%. Besides, the “minimum inhibitory concentration (MIC), C. albicans” value in the assay with C. albicans amounted to 0.1%. Also, the “minimum inhibitory concentration (MIC), P. Aeruginosa” value in the assay with P. aeruginosa is on record as 0.05%. In the assay with S. aureus, the “minimum inhibitory concentration (MIC), S. Aureus” value worked out at 0.01%.
Consider `O=C([O-])CN(CCN(CC(=O)[O-])CC(=O)[O-])CC(=O)[O-].[Na+].[Na+].[Na+].[Na+]` [Comparative Example 24, Tetrasodium EDTA], for which the “minimum inhibitory concentration (MIC), E. coli” value in the assay on E. coli is on record as 0.1%. The “minimum inhibitory concentration (MIC), A. niger” value with A. niger turned out to be 0.15%. Moreover, the “minimum inhibitory concentration (MIC), C. albicans” value in the assay on C. albicans is 0.05%. Moreover, the “minimum inhibitory concentration (MIC), P. Aeruginosa” value with P. aeruginosa was 0.15%. The “minimum inhibitory concentration (MIC), S. Aureus” value with S. aureus was 0.1%.
For the molecule Citric acid [Comparative Example 21], in the assay with E. coli, the “minimum inhibitory concentration (MIC), E. coli” value stood at 0.1%. Further, the “minimum inhibitory concentration (MIC), A. niger” value with A. niger is recorded as 0.2%. For the same molecule, the “minimum inhibitory concentration (MIC), C. albicans” value with C. albicans was found to be 0.05%. The “minimum inhibitory concentration (MIC), P. Aeruginosa” value in the assay on P. aeruginosa is 0.1%. Also, the “minimum inhibitory concentration (MIC), S. Aureus” value in the assay with S. aureus is 0.1%.
Take Disodium EDTA [Comparative Example 23]: the “minimum inhibitory concentration (MIC), E. coli” value in the assay on E. coli was determined as 0.1%. The “minimum inhibitory concentration (MIC), A. niger” value in the assay with A. niger is 0.15%. Moreover, the “minimum inhibitory concentration (MIC), C. albicans” value with C. albicans is 0.05%. In addition, in the assay with P. aeruginosa, the “minimum inhibitory concentration (MIC), P. Aeruginosa” value is given as 0.15%. The “minimum inhibitory concentration (MIC), S. Aureus” value in the assay on S. aureus is 0.1%.
